Data: US6288091A, “Antiherpes virus compounds and methods for their preparation and use” (Boehringer Ingelheim Ltd., priority 1999, dated 2001)

Legend:
HSV-1 strain F or KOS = assay: Inhibition of herpes simplex virus (HSV-1) replication in cell culture (BHK-21 cells, glycoprotein C ELISA); format: cell-based
Summary of the method: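 BHK-21 clone 13 cells infected with HSV-1 F or KOS at MOI 0.05 PFU/cell for 1 h at 37°, washed, then treated with compound in α-MEM/2% FBS for 24 h. Late glycoprotein C quantified by ELISA (mAb C11, HRP/OPD, 450 nm); EC50 from % inhibition.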

[1] = Inhibition of HCMV replication, plaque reduction assay (PRA, Hs-68 cells); format: cell-based, Human Cytomegalovirus (HCMV); conditions: human, Group 1 Table 5 entries, read-out: Cytotoxic at this concentration (footnote *, PRA CMV)
Summary of the method: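 Hs-68 monolayers (80–90% confluent) were infected with ~50 PFU HCMV AD169 for 2 h at 37°, then given compound in DMEM/5% inactivated FBS, refreshed after 4 days and kept 4 more days. Plaques were counted after formaldehyde fixation and crystal violet staining. EC50 derives from percent plaque reduction versus untreated wells.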

[2] = Human alphaherpesvirus 1, BHK-21, Group 2 Table 1 entries
[3] = Human alphaherpesvirus 1, BHK-21, Group 1 Table 6 entries
[4] = Human alphaherpesvirus 1, BHK-21, Group 1 Table 5 entries

CCCCN(CCCC)C(=O)C(=O)Nc1ccc(-c2csc(N)n2)cc1 [Example 1, N-{4-(2-Amino-4-thiazolyl)phenyl}-N',N'-dibutylethanediamide]
EC50 (HSV-1 strain F or KOS; Human alphaherpesvirus 1, BHK-21, Group 2 Table 2 entries): 2900 nM

CCCCN(CCCC)C(=O)Nc1ccc(-c2csc(N)n2)cc1 [Example 1, N-{4-(2-Amino-4-thiazolyl)phenyl}-N,N-dibutylurea]
EC50 (HSV-1 strain F or KOS; [2]): 800 nM

Nc1nc(-c2ccc(NC(=O)[C@@H]3CCC(=O)N3Cc3ccccc3)cc2)cs1 [Example 2]
EC50 (HSV-1 strain F or KOS; [3]): 2600 nM

Nc1nc(-c2ccc(NC(=O)[C@H]3CCC(=O)N3CC3CCCCC3)cc2)cs1 [Example 3]
EC50 (HSV-1 strain F or KOS; [3]): 2100 nM

CN(CCc1ccccn1)C(=O)Nc1ccc(-c2csc(N)n2)cc1 [Example 4]
EC50 (HSV-1 strain F or KOS; [2]): 1400 nM

Nc1nc(-c2ccc(NC(=O)[C@@H]3CCCN3C(=O)c3ccccc3)cc2)cs1 [Example 5]
EC50 (HSV-1 strain F or KOS; [3]): 170 nM

Nc1nc(-c2ccc(NC(=O)[C@@H]3CCCN3C(=O)C3CCCCC3)cc2)cs1 [Example 6]
EC50 (HSV-1 strain F or KOS; [3]): 16 nM

CC(C)(C)OC(=O)N1CCC[C@@H]1C(=O)Nc1ccc(-c2csc(N)n2)cc1 [Example 8]
EC50 (HSV-1 strain F or KOS; [3]): 1800 nM

Nc1nc(-c2ccc(NC(=O)[C@H]3CCCN3C(=O)c3ccccc3)cc2)cs1 [Example 9]
EC50 (HSV-1 strain F or KOS; [3]): 590 nM

CN(C(=O)OC(C)(C)C)[C@@H](Cc1ccccc1)C(=O)Nc1ccc(-c2csc(N)n2)cc1 [Example 10]
EC50 (HSV-1 strain F or KOS; [4]): 59 nM

Nc1nc(-c2ccc(NC(=O)[C@H]3CCCN3C(=O)C3CCCCC3)cc2)cs1 [Example 10]
EC50 (HSV-1 strain F or KOS; [3]): 25 nM

CCCC(CCC)NC(=O)Nc1ccc(-c2csc(N)n2)cc1 [Example 11]
EC50 (HSV-1 strain F or KOS; [2]): 8000 nM

Nc1nc(-c2ccc(NC(=O)[C@H](Cc3ccccc3)N(Cc3ccccc3)C(=O)C3CCCCC3)cc2)cs1 [Example 11]
EC50 (HSV-1 strain F or KOS; [4]): 510 nM

CC(C)(C)NC(=O)Nc1ccc(-c2csc(N)n2)cc1 [Example 12]
EC50 (HSV-1 strain F or KOS; [2]): 4400 nM

CN(CCc1ccccn1)C(=O)Nc1ccc(-c2csc(NC(=O)OC(C)(C)C)n2)cc1 [Example 14]
EC50 (HSV-1 strain F or KOS; [2]): 3200 nM

CCCCN(CCCC)C(=O)Nc1ccc(-c2csc(NC(=O)OC(C)(C)C)n2)cc1 [Example 15]
EC50 (HSV-1 strain F or KOS; [2]): > 6000 nM

CC(C)(C)CC(=O)N[C@@H](Cc1ccccc1)C(=O)Nc1ccc(-c2csc(N)n2)cc1 [Example 19]
EC50 (HSV-1 strain F or KOS; [4]): 40 nM | MCC at 192 h [1]: 21 µM

Nc1nc(-c2ccc(NC(=O)[C@H](Cc3ccccc3)NS(=O)(=O)N3CCOCC3)cc2)cs1 [Example 25]
EC50 (HSV-1 strain F or KOS; [4]): 100 nM
